Read-outs that look alike come from different tables or passages of the source.
Key:
DLD-1 BRCA2−/− cells = experiment: Homologous recombination synthetic lethal inhibition of proliferation, DLD-1 BRCA2-/- (Cell Titre Glo 3D); format: cell-based; conditions: for IC50: Homo sapiens
Method in brief: (§1)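 Cells are seeded in RPMI 1640 (phenol red free, 10% FBS, GlutaMAX) onto pre-dosed compound (10 μM to 0.51 nM, three-fold). Plates are incubated at 37 °C, and medium plus compound are refreshed on day 6. Viability is read by CellTiter-Glo 3D at day 7 (DLD-1) or day 12 (DLD-1 BRCA2−/−), and the IC50 is fitted.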

DLD-1 cells = experiment: Inhibition of proliferation, DLD-1 BRCA2 wt control (Cell Titre Glo 3D); format: cell-based; conditions: for IC50: Homo sapiens
Method in brief: as §1

[1] = DLD-1, first proliferation column (c5), taken as DLD-1 BRCA2-/-, read-out: POLQ PD Prolif Lumin (converted)
[2] = DLD-1, second proliferation column (c6), taken as DLD-1 BRCA2 wt, read-out: POLQ PD Prolif Lumin (converted)
[3] = DLD-1, first proliferation column, DLD-1 BRCA2-/-, read-out: POLQ PD Prolif Lumin (converted)
[4] = DLD-1, second proliferation column, DLD-1 BRCA2 wt control, read-out: POLQ PD Prolif Lumin (converted)
[5] = DLD-1, 288 h, DLD-1 BRCA2−/− cells, 12 days, read-out: POLQ PD Prolif Lumin BRCA2 −/− mean pIC50 (converted)
[6] = DLD-1, 168 h, DLD-1 BRCA2 wt cells, 7 days, read-out: POLQ PD Prolif Lumin DLD1 mean pIC50 (converted)
[7] = DLD-1, 288 h, DLD-1 BRCA2−/−, 12 days, Cell Titre Glo 3D, read-out: POLQ PD Prolif Lumin BRCA2 −/− Mean pIC50 (converted)
[8] = DLD-1, 168 h, DLD-1 (BRCA2 wt control), 7 days, Cell Titre Glo 3D, read-out: POLQ PD Prolif Lumin DLD1 Mean pIC50 (converted)

SMILES | IC50 (DLD-1 cells; [6]) | IC50 (DLD-1 BRCA2−/− cells; [5]) | further results
Cc1ccnc(Cn2c(-c3ccc(C(=O)N4CC[C@@H](O)C4)cc3Cl)nc3c(OC4(C)CC4)ncnc32)c1 [Example T311, (R)-(3-chloro-4-(6-(1-methylcyclopropoxy)-9-((4-methylpyridin-2-yl)methyl)-9H-purin-8-yl)phenyl)(3-hydroxypyrrolidin-1-yl)methanone] |  |  | IC50 (DLD-1 BRCA2−/− cells; [1]): 3.98 µM; IC50 (DLD-1 cells; [2]): > 10 µM
Cc1ccnc(Cn2c(-c3cccc(OCCCN4CC[C@@H](O)C4)c3Cl)nc3c(OC4(C)CC4)ncnc32)c1 [Example T593, (R)-1-(3-(2-chloro-3-(6-(1-methylcyclopropoxy)-9-((4-methylpyridin-2-yl)methyl)-9H-purin-8-yl)phenoxy)propyl)pyrrolidin-3-ol] |  |  | IC50 (DLD-1 BRCA2−/− cells; [3]): 0.251 µM; IC50 (DLD-1 cells; [4]): > 10 µM
CN1CCCC1CCOc1ccc(-c2nc3c(OC4(C)CC4)ncnc3n2Cc2ccccc2)c(Cl)c1 (single isomer, unassigned) [Example D4, 9-benzyl-8-(2-chloro-4-(2-(1-methylpyrrolidin-2-yl)ethoxy)phenyl)-6-(1-methylcyclopropoxy)-9H-purine] |  |  | POLQ PD Prolif Lumin BRCA2 −/− mean pIC50 (DLD-1 BRCA2−/− cells; DLD-1 BRCA2−/− cells, 12 days): 7.3; POLQ PD Prolif Lumin DLD1 mean pIC50 (DLD-1 cells; DLD-1 BRCA2 wt cells, 7 days): 6.2
CC(C)Oc1ccc2c(c1)nc(-c1ccc(OCCC3CCCN3C)cc1Cl)n2Cc1ccccc1 (single isomer, unassigned) [Example A8, 1-benzyl-2-(2-chloro-4-(2-(1-methylpyrrolidin-2-yl)ethoxy)phenyl)-5-isopropoxy-1H-benzo[d]imidazole] | 0.501 µM | 0.126 µM | 
CC1(Oc2ncnc3c2nc(-c2ccc(OCCN4CCNC(=O)CC4)cc2Cl)n3Cc2ccccc2)CC1 [Example H21, 1-(2-(4-(9-benzyl-6-(1-methylcyclopropoxy)-9H-purin-8-yl)-3-chlorophenoxy)ethyl)-1,4-diazepan-5-one] | > 10 µM | 0.0631 µM | 
CC1(Oc2ncnc3c2nc(-c2ccc(OCCN4CC5(CC(O)C5)C4)cc2Cl)n3Cc2ccccc2)CC1 [Example H16, 2-(2-(4-(9-benzyl-6-(1-methylcyclopropoxy)-9H-purin-8-yl)-3-chlorophenoxy)ethyl)-2-azaspiro[3.3]heptan-6-ol] | 5.01 µM | 0.0501 µM | 
Cc1cnc(Cn2c(-c3ccc(OCCN4CCNCC4)cc3Cl)nc3c(OC4(C)CC4)ncnc32)cc1Cl [Example T526, 8-(2-chloro-4-(2-(piperazin-1-yl)ethoxy)phenyl)-9-((4-chloro-5-methylpyridin-2-yl)methyl)-6-(1-methylcyclopropoxy)-9H-purine] |  |  | IC50 (DLD-1 BRCA2−/− cells; DLD-1, first proliferation column (c5), DLD-1 BRCA2-/-, read-out: POLQ PD Prolif Lumin (converted)): 0.631 µM; IC50 (DLD-1 cells; DLD-1, second proliferation column (c6), DLD-1 BRCA2 wt control, read-out: POLQ PD Prolif Lumin (converted)): > 10 µM
CC1(Oc2ncnc3c2nc(-c2cccc(OCCN4CCNCC4)c2Cl)n3Cc2ccccc2)CC1 [Example D10, 9-benzyl-8-(2-chloro-3-(2-(piperazin-1-yl)ethoxy)phenyl)-6-(1-methylcyclopropoxy)-9H-purine] | 5.01 µM | 0.126 µM | 
CC1(Oc2ncnc3c2nc(-c2ccc(OCCN4CCNCC4)cc2Cl)n3Cc2ccccc2)CC1 [Example 6, 9-Benzyl-8-(2-chloro-4-(2-(piperazin-1-yl)ethoxy)phenyl)-6-(1-methylcyclopropoxy)-9H-purine] | 3.98 µM | 0.158 µM | 
CC1(Oc2ncnc3c2nc(-c2ccc(O[C@H]4C[C@@H](C(=O)O)C4)cc2Cl)n3Cc2cccc(Cl)c2)CC1 [Example T254, (1s,3s)-3-(3-chloro-4-(9-(3-chlorobenzyl)-6-(1-methylcyclopropoxy)-9H-purin-8-yl)phenoxy)cyclobutane-1-carboxylic acid] |  |  | POLQ PD Prolif Lumin (DLD-1 BRCA2−/− cells; DLD-1 BRCA2-/- proliferation, column head only partly shown): 6.8; POLQ PD Prolif Lumin (DLD-1 cells; DLD-1 BRCA2 wt control proliferation, column head only partly shown): <5.0
CC1(Oc2ncnc3c2nc(-c2ccc(OCCN4CC(O)C4)cc2Cl)n3Cc2cc(C(F)F)ccn2)CC1 [Example T307, 1-(2-(3-chloro-4-(9-((4-(difluoromethyl)pyridin-2-yl)methyl)-6-(1-methylcyclopropoxy)-9H-purin-8-yl)phenoxy)ethyl)azetidin-3-ol] |  |  | IC50 (DLD-1 BRCA2−/− cells; [1]): 1.58 µM; IC50 (DLD-1 cells; [2]): > 10 µM
Cc1scnc1Cn1c(-c2ccc(OCCN3CCNCC3)cc2Cl)nc2c(OC3(C)CC3)ncnc21 [Example K12, 4-((8-(2-chloro-4-(2-(piperazin-1-yl)ethoxy)phenyl)-6-(1-methylcyclopropoxy)-9H-purin-9-yl)methyl)-5-methylthiazole] | > 10 µM | 1.58 µM | 
Cc1ccnc(Cn2c(-c3ccc(OC[C@@H](C)O)cc3Cl)nc3c(OC4(C)CC4)ncnc32)c1 [Example 37, (R)-1-(3-Chloro-4-(6-(1-methylcyclopropoxy)-9-((4-methylpyridin-2-yl)methyl)-9H-purin-8-yl)phenoxy)propan-2-ol] |  |  | IC50 (DLD-1 BRCA2−/− cells; [7]): 0.126 µM; IC50 (DLD-1 cells; [8]): > 10 µM
C#CC1(Oc2ncnc3c2nc(-c2ccc(OCCN4CCNCC4)cc2Cl)n3Cc2ccccc2)CCC1 [Example Q3, 9-benzyl-8-(2-chloro-4-(2-(piperazin-1-yl)ethoxy)phenyl)-6-(1-ethynylcyclobutoxy)-9H-purine] | 5.01 µM | 0.251 µM | 
CC1(Oc2ncnc3c2nc(-c2ccc(OCC(=O)O)cc2Cl)n3Cc2ccccc2)CC1 [Example D24, 2-(4-(9-benzyl-6-(1-methylcyclopropoxy)-9H-purin-8-yl)-3-chlorophenoxy)acetic acid] | > 10 µM | > 10 µM | 
COc1ccc(C)cc1Cn1c(-c2ccc(OCCC(C)C(=O)O)cc2Cl)nc2c(OC3(C)CC3)ncnc21 (racemic) [Example U1, 4-(3-chloro-4-(9-(2-methoxy-5-methylbenzyl)-6-(1-methylcyclopropoxy)-9H-purin-8-yl)phenoxy)-2-methylbutanoic acid] |  |  | IC50 (DLD-1 BRCA2−/− cells; DLD-1, DLD-1 BRCA2 −/−, mean, read-out: POLQ PD Prolif Lumin BRCA2 −/− mean pIC50 (converted)): 0.0501 µM; IC50 (DLD-1 cells; DLD-1, DLD1 BRCA2 wt, mean, read-out: POLQ PD Prolif Lumin DLD1 mean pIC50 (converted)): > 10 µM
Cc1ccnc(Cn2c(-c3ccc(C(=O)N4CCNCC4)cc3Cl)nc3c(OC4(C)CC4)ncnc32)c1 [Example T337, (3-chloro-4-(6-(1-methylcyclopropoxy)-9-((4-methylpyridin-2-yl)methyl)-9H-purin-8-yl)phenyl)(piperazin-1-yl)methanone] |  |  | IC50 (DLD-1 BRCA2−/− cells; [1]): 5.01 µM; IC50 (DLD-1 cells; [2]): > 10 µM
C[C@H](CCOc1ccc(-c2nc3c(OC4(C)CC4)ncnc3n2Cc2cccc(Cl)c2)c(Cl)c1)C(=O)O (single isomer, unassigned; isomer 1) [Example 34, 4-(3-Chloro-4-(9-(3-chlorobenzyl)-6-(1-methylcyclopropoxy)-9H-purin-8-yl)phenoxy)-2-methylbutanoic acid (Isomer 1)] |  |  | IC50 (DLD-1 BRCA2−/− cells; [7]): 0.2 µM; IC50 (DLD-1 cells; [8]): > 10 µM
Cc1cc(OCCN2CCNCC2)ncc1-c1nc2c(OC3(C)CCC3)ncnc2n1Cc1ccccc1 [Example 24, 9-Benzyl-8-(4-methyl-6-(2-(piperazin-1-yl)ethoxy)pyridin-3-yl)-6-(1-methylcyclobutoxy)-9H-purine] | 3.98 µM | 0.158 µM | 
CC1(Oc2ncnc3c2nc(-c2ccc(OCCN4CCNCC4)cc2Cl)n3Cc2cc(C(F)(F)F)ccn2)CC1 [Example K8, 8-(2-chloro-4-(2-(piperazin-1-yl)ethoxy)phenyl)-6-(1-methylcyclopropoxy)-9-((4-(trifluoromethyl)pyridin-2-yl)methyl)-9H-purine] | 7.94 µM | 0.398 µM | 
Cc1ccnc(Cn2c(-c3ccc(CC(=O)N4CCC(O)CC4)cc3Cl)nc3c(OC4(C)CC4)ncnc32)c1 [Example T574, 2-(3-chloro-4-(6-(1-methylcyclopropoxy)-9-((4-methylpyridin-2-yl)methyl)-9H-purin-8-yl)phenyl)-1-(4-hydroxypiperidin-1-yl)ethan-1-one] |  |  | IC50 (DLD-1 BRCA2−/− cells; [3]): 1 µM; IC50 (DLD-1 cells; [4]): > 10 µM
Cc1ccnc(Cn2c(-c3ccc(NC(=O)N4CC[C@@H](O)C4)cc3Cl)nc3c(OC4(C)CC4)ncnc32)c1 [Example T342, (R)-N-(3-chloro-4-(6-(1-methylcyclopropoxy)-9-((4-methylpyridin-2-yl)methyl)-9H-purin-8-yl)phenyl)-3-hydroxypyrrolidine-1-carboxamide] |  |  | IC50 (DLD-1 BRCA2−/− cells; [1]): > 3.98 µM; IC50 (DLD-1 cells; [2]): > 10 µM

Further lines, with some results ahead:

IC50 (DLD-1 cells; [6]) | SMILES | IC50 (DLD-1 BRCA2−/− cells; [5]) | further results
1.58 µM | CC1(Oc2ncnc3c2nc(-c2ccc(OCCN4C[C@@H]5CC[C@H]4CN5)cc2Cl)n3Cc2ccccc2)CC1 [Example R21, (1S,4S)-2-(2-(4-(9-benzyl-6-(1-methylcyclopropoxy)-9H-purin-8-yl)-3-chlorophenoxy)ethyl)-2,5-diazabicyclo[2.2.2]octane] | 0.316 µM | 
2 µM | Clc1cccc(Cn2c(-c3ccc(OCCN4CCNCC4)cc3Cl)nc3c(OC4CC4)ncnc32)c1 [Example Q4, 8-(2-chloro-4-(2-(piperazin-1-yl)ethoxy)phenyl)-9-(3-chlorobenzyl)-6-cyclopropoxy-9H-purine] | 0.2 µM | 
